Test results published in US10266496B2, “Carboxy substituted (hetero) aromatic ring derivatives and preparation method and uses thereof” (SUNSHINE LAKE PHARMA CO., LTD., priority 2015, dated 2019).
Like-named read-outs stand apart in the source and are kept apart here.

What was measured:
[1] = Pharmacokinetic evaluation in SD rats; type: in vivo
Protocol: SD rats were fasted for 15 h overnight and grouped randomly according to body weight. The test compound was dissolved in a solution of 5% DMSO+5% Solutol+90% Saline. For intravenous administration of the test group, the animals were administered with a dose of 1 mg/kg; for oral administration of the test group, the animals were administered with a dose of 5 mg/kg. Then venous blood (approximately 0.2 mL) was collected at the time point of 0, 0.083 (only intravenous injection group), 0.25, 0.5, 1.0, 2.0, 5.0, 7.0 and 24 h after drug administration. The venous blood was placed in EDTAK2 anticoagulant tube and centrifuged at 11000 rpm for 2 min. Plasma was collected and stored at −20° C. or at −70° C. until LC/MS/MS analysis. The drug concentration in plasma was measured at each time point, and pharmacokinetic parameters were calculated according to the curve of drug concentration-time.

xanthine oxidase = xanthine oxidase (Homo sapiens (Human), UniProt P47989); assay: XO (Xanthine Oxidase) inhibition activity assay; type: biochemical; conditions: substrate xanthine, absorbance at 290 nm
Sequence of xanthine oxidase (P47989 whole entry, species assumed): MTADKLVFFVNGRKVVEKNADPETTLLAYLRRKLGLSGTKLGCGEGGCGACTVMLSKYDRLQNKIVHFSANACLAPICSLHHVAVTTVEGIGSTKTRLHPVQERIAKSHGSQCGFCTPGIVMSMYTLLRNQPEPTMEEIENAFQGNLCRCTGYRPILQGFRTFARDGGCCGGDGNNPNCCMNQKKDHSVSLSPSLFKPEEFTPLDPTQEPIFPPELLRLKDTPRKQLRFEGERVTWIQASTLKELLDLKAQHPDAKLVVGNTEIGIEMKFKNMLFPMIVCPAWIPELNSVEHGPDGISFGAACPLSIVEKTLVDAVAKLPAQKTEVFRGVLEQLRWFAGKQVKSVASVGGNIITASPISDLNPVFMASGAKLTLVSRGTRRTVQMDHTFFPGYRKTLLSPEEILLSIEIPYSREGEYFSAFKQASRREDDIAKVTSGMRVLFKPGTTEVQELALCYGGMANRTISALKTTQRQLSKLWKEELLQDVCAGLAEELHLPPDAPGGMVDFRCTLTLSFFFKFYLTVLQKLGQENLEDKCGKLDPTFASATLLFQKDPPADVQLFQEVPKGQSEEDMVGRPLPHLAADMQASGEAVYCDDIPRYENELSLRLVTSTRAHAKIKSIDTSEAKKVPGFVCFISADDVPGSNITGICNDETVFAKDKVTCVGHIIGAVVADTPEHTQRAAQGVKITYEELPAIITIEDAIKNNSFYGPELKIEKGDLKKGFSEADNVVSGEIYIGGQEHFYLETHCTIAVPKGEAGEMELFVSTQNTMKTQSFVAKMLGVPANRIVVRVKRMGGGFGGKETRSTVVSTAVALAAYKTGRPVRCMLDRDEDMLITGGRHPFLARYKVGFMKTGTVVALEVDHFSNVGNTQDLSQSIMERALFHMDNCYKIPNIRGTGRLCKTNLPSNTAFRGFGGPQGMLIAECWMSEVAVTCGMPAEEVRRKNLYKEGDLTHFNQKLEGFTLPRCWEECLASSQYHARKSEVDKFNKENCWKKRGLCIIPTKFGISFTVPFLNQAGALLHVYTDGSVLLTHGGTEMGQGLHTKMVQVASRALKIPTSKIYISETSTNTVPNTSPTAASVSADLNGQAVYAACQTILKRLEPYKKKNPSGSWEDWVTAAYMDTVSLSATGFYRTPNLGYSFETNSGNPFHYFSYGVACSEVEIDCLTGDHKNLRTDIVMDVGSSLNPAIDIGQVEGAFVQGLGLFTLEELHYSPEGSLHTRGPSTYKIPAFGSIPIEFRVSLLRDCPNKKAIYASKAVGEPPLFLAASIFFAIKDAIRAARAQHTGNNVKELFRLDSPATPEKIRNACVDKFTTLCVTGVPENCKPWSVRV
Protocol: Then the diluted solution was added to a 384 well plate at 30 μL/well, and then to each well was added 30 μL of 21 mU/mL xanthine oxidase. […] After being incubated at room temperature for 5 min, absorbance at 290 nm was read by using PHERAstar FS microplate reader.

hURAT1 = hURAT1 (Homo sapiens (Human), UniProt Q96S37); assay: URAT1 (urate anion transporter) inhibition activity assay: [8-14C] uric acid absorption inhibition in HEK293T cell line stably expressing hURAT1; type: cell-based; conditions: [8-14C] uric acid uptake, HEK293T cells stably expressing hURAT1
Sequence of hURAT1 (Q96S37 whole entry): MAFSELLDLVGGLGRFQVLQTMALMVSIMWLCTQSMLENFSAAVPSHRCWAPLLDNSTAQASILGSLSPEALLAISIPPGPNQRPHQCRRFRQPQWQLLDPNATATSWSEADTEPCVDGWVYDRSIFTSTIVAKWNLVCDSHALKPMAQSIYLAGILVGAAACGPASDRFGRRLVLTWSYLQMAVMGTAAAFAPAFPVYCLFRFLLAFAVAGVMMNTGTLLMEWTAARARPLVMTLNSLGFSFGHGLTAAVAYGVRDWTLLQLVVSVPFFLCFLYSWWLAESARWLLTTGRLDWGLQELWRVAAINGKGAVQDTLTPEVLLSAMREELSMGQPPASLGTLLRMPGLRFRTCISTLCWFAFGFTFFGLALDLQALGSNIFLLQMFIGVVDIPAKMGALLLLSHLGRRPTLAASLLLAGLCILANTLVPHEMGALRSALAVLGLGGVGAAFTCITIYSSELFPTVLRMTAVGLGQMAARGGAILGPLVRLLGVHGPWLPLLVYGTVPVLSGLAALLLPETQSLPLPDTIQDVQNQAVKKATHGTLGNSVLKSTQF
Excerpt: Inhibition ratio (%)=[1−(^14C uptaken by drug well−^14C uptaken by negative well)/(^14C uptaken by buffer well−^14C uptaken by negative well)]×100;
Wherein, the negative well was unvaccinated cell line […].

[2] = rat, plasma, SD rats, iv, 1 mg/kg
[3] = rat, plasma, SD rats, iv, 1 mg/kg, read-out: Cmax
[4] = rat, plasma, SD rats, po, 5 mg/kg

SMILES	F ([1]; SD, rat, in vivo)	AUClast ([1]; SD, rat, in vivo, iv, 1 mg/kg)	Vd ([1]; SD, rat, in vivo, iv, 1 mg/kg)	AUClast ([1]; SD, rat, in vivo, po, 5 mg/kg)	T1/2 ([1]; SD, rat, in vivo, po, 5 mg/kg)	AUC(0-inf) [1, 2]	MRT inf [1, 2]	Tmax [1, 2]	half-life [1, 2]	Cmax [1, 3]	AUC(0-inf) [1, 4]	MRT inf [1, 4]	Tmax [1, 4]	IC50 (xanthine oxidase)	IC50 (hURAT1)	further results
N#Cc1cc(-c2ccc(C(=O)O)c(O)c2)c2occc2c1 [Example 1, 4-(5-cyanobenzofuran-7-yl)-2-hydroxybenzoic Acid]	131%	6.86 µg·h/mL	0.399 L/kg	44.4 µg·h/mL	3.45 h	7 µg·h/mL	2.84 h	0.083 h	1.53 h	6.03 µg/mL	45.8 µg·h/mL	5.98 h	0.417 h	0.0196 µM	0.14 µM	clearance ([1]; SD, rat, in vivo, iv, 1 mg/kg): 0.144 L/h/kg
N#Cc1cc(-c2ccc(C(=O)O)c(O)c2)c2ccccc2c1 [Example 2, 4-(3-cyanonaphthalene-1-yl)-2-hydroxybenzoic Acid]						2.21 µg·h/mL	1.86 h	0.083 h	3.1 h	4.38 µg/mL	8.14 µg·h/mL	1.5 h	0.417 h			F ([1]; SD rats, po 5 mg/kg vs iv 1 mg/kg): 74.9%; AUC(0-t) [1, 2]: 2.17 µg·h/mL; clearance ([1]; rat, plasma, SD rats, iv, 1 mg/kg, read-out: Cl): 0.455 L/h/kg; Vd ([1]; rat, plasma, SD rats, iv, 1 mg/kg, read-out: Vss): 0.828 L/kg; AUC(0-t) [1, 4]: 8.13 µg·h/mL; half-life [1, 4]: 3.86 h; Cmax ([1]; rat, plasma, SD rats, po, 5 mg/kg, read-out: Cmax): 6.29 µg/mL
N#Cc1cc2c(c(-c3ccc(C(=O)O)c(O)c3)c1)OCC2 [Example 4, 4-(5-cyano-2,3-dihydrobenzofuran-7-yl)-2-hydroxybenzoic Acid]														0.0604 µM	0.499 µM	
N#Cc1cc(-c2ccc(C(=O)O)c(O)c2)c2[nH]ccc2c1 [Example 7, 4-(5-cyano-1H-indol-7-yl)-2-hydroxybenzoic Acid]														0.0109 µM	2.88 µM	
N#Cc1cc(-c2ccc(C(=O)O)c(O)c2)c2ccoc2c1 [Example 21, 4-(6-cyanobenzofuran-4-yl)-2-hydroxybenzoic Acid]														0.0395 µM	0.172 µM	
N#Cc1cc(-c2ccc(C(=O)O)c(O)c2)c2oc(F)cc2c1 [Example 29, 4-(5-cyano-2-fluorobenzofuran-7-yl)-2-hydroxybenzoic Acid]	145%	10.9 µg·h/mL	0.311 L/kg	81.7 µg·h/mL	2.84 h	11.3 µg·h/mL	3.49 h	0.083 h	2.76 h	4.54 µg/mL	82.1 µg·h/mL	3.8 h	1.33 h	0.0346 µM	0.038 µM	Cl ([1]; SD, rat, in vivo, iv, 1 mg/kg): 0.0906 L/h/kg
N#Cc1cc(-c2ccc(C(=O)O)c(O)c2)c2ccsc2c1 [Example 31, 4-(6-cyanobenzo[b]thiophen-4-yl)-2-hydroxybenzoic Acid]														0.0578 µM	0.045 µM	
N#Cc1cc(-c2ccc(C(=O)O)c(O)c2)c2oc(Cl)cc2c1 [Example 40, 4-(2-chloro-5-cyanobenzofuran-7-yl)-2-hydroxybenzoic Acid]	94%	5.48 µg·h/mL	0.401 L/kg	28.1 µg·h/mL	3.05 h	6.02 µg·h/mL	2.42 h	0.083 h	2.33 h	4.09 µg/mL	28.2 µg·h/mL	4.95 h	0.5 h	0.0536 µM	0.03 µM	Cl ([1]; SD, rat, in vivo, iv, 1 mg/kg): 0.166 L/h/kg; Cmax ([1]; SD, rat, in vivo, po, 5 mg/kg): 3.7 µg/mL
